Results on 16 compounds are retold here after patent publication EP1140909B1, “NOVEL INHIBITORS OF FARNESYL-PROTEIN TRANSFERASE” (Schering Corporation, priority 1998, dated 2000).

Molecules are shown by their SMILES. Values joined by “and” are separate entries in the source; they are usually repeats but may differ in a detail not shown here. Equal entries are not always repeated.

For the assay, the target named is T1, partially purified rat brain farnesyl protein transferase (FPT) (Rattus norvegicus, UniProt Q02293+Q04631).
T1 construct: partially purified rat brain farnesyl protein transferase (FPT); from tissue; host or cells: rat brain
T1 sequence (Q02293 whole entry, one chain of several): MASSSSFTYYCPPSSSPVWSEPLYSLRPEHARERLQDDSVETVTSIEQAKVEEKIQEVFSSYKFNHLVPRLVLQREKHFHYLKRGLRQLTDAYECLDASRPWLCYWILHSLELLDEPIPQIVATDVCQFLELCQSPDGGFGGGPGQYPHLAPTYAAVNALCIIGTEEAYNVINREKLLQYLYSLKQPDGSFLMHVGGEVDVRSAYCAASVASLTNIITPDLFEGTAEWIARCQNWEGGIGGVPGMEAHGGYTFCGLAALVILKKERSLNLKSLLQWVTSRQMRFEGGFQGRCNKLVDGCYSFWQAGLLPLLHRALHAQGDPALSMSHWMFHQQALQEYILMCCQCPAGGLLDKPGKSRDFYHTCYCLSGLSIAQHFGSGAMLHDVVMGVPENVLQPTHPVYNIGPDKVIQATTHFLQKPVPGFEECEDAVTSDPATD
Description: FPT IC50 in vitro enzyme assay (inhibition of Ras-CVLS farnesylation). The following applies: inhibition of Ras-CVLS famesylation; methods of WO/10515 or WO 95/10516. Type of assay: biochemical. As for the experimental part:
1. In vitro enzyme assays: FPT IC50 (inhibition of farnesyl protein transferase, in vitro enzyme assay) are determined by the methods disclosed in […] or WO 95/10516.
For the compound `CC(c1ccccc1)N1CCN(C(=O)NC2CCCCC2)[C@@H](C(=O)NCCc2cncn2Cc2ccc(C#N)cc2)C1` (stereo partly drawn) [Example 1, N2-[2-[1-[(4-cyanophenyl)methyl]-1H-imidazol-5-yl]ethyl]-N1-cyclohexyl-4-(1-phenylethyl)-1,2(R)-piperazinedicarboxamide], the IC50 lay in the range of 180 to 21000 pM.
Under `N#Cc1ccc(Cn2cncc2CCNC(=O)[C@H]2CN(Cc3ccncc3)CCN2C(=O)NC2CCCCC2)cc1` [Example 5] stands 180 to 21000 pM.
Consider `N#Cc1ccc(Cn2cncc2CCNC(=O)[C@H]2CN(CC3CC4C=CC3C4)CCN2C(=O)NC2CCCCC2)cc1` (stereo partly shown) [Example 6], for which the IC50 was in the range of 180 to 21000 pM.
The compound `CC(=O)Nc1ccc(CN2CCN(C(=O)NC3CCCCC3)[C@@H](C(=O)NCCc3cncn3Cc3ccc(C#N)cc3)C2)cc1` [Example 20] showed an IC50 of 180 to 1500 pM.
Under `N#Cc1ccc(Cn2cncc2CCNC(=O)[C@H]2CN(Cc3cccc(Cl)c3)CCN2C(=O)NC2CCCCC2)cc1` [Example 25] stands 180 to 1500 pM; under `COc1cccc(CN2CCN(C(=O)NC3CCCCC3)[C@@H](C(=O)NCCc3cncn3Cc3ccc(C#N)cc3)C2)c1` [Example 26], 180 to 1500 pM; under `COc1ccccc1CN1CCN(C(=O)NC2CCCCC2)[C@@H](C(=O)NCCc2cncn2Cc2ccc(C#N)cc2)C1` [Example 27], 180 to 1500 pM.
With `CCCC(=O)N1CCN(Cc2ccccc2)CC1C(=O)NCCc1cncn1Cc1ccc(C#N)cc1` (stereo not shown) [Example 28F] the figure was 180 to 21000 pM; with `N#Cc1ccc(Cn2cncc2CCNC(=O)C2CN(Cc3ccccc3)CCN2C(=O)c2ccccc2)cc1` (stereo not shown) [Example 28G], 180 to 21000 pM; with `N#Cc1ccc(Cn2cncc2CCNC(=O)C2CN(Cc3ccccc3)CCN2C(=O)Cc2ccccc2)cc1` (stereo not shown) [Example 28I], 180 to 21000 pM.
With `N#Cc1ccc(Cn2cncc2CCNC(=O)C2CN(Cc3ccccc3)CCN2S(=O)(=O)Cc2ccccc2)cc1` (stereo not shown) [Example 28M] the figure was 180 to 21000 pM; with `CC(C)(C)NC(=O)N1CCN(Cc2ccccc2)CC1C(=O)NCCc1cncn1Cc1ccc(C#N)cc1` (stereo not shown) [Example 28O], 180 to 21000 pM and 180 to 1500 pM; with `N#Cc1ccc(Cn2cncc2CCNC(=O)C2CN(Cc3ccccc3)CCN2C(=O)CC2CCN(C(N)=O)CC2)cc1` (stereo not shown) [Example 28Q], 180 to 21000 pM.
Compound `O=C(C1CN(Cc2ccccc2)CCN1C(=O)NC1CCCCC1)N(CCCn1ccnc1)Cc1ccccc1` (stereo not shown) [Example 28S] had an IC50 of 180 to 21000 pM.
`CC(C)(C)NC(=O)N1CCN(Cc2ccccc2)CC1C(=O)N(CCCn1ccnc1)Cc1ccccc1` (stereo not shown) [Example 28T] showed an IC50 of 180 to 21000 pM.
With `N#Cc1ccc(Cn2cncc2CCNC(=O)[C@H]2CN(Cc3ccccc3Cl)CCN2C(=O)NC2CCCCC2)cc1` [Example 28] the figure was 180 to 1500 pM.

As usually defined, the IC50 is the concentration that inhibits the measured activity by half. A low value points to higher potency.
